The source of these data is US20060100153A1, “HSulf-1 nucleic acids, polypeptides and methods of using” (Mayo Foundation for Medical Education and Research, a …, priority 2003, published 2006).

For assay [1], the system named is SNU182, SNU475 and SNU449 HCC cell lines. Nature of the assay: Detection and quantitation of apoptosis in SNU449, SNU182 and SNU475 HCC cell lines. The settings on record: for cisplatin-induced apoptosis: 5 μM, 24 hours; for staurosporine-induced apoptosis: 1 μM, 5 hours. The assay is classed as cell-based. The method, then: Detection and quantitation of apoptosis: Apoptosis was quantitated by assessing nuclear changes indicative of apoptosis (i.e., chromatin condensation and nuclear fragmentation) using the DNA binding dye DAPI as described by Roberts et al. (supra). Cells were seeded in 35-mm plates at 2×10^5 cells per well. After incubation for 24 hours, the plates were washed, changed to serum free medium containing 1 μM staurosporine, and incubated for 5 hours at 37° C. Five micrograms of DAPI were added and the plates were incubated for 20 minutes at room temperature in the dark. The cells were then examined by fluorescence microscopy (Nikon Eclipse TE200; […] For each treatment, at least 300 cells in six different high-power fields were counted. […] For experiments using cisplatin, cells cultured in medium with 10% serum were treated with or without 5 μM cisplatin for 24 hours, then stained with DAPI and counted. Flow cytometry also was used to evaluate apoptosis. After a 5 hour treatment with 1 μM staurosporine as described above, cells were collected by centrifugation and washed twice in ice-cold PBS with 3% heat-inactivated FBS and 0.02% sodium azide. Cells were stained with 50 μg/ml 7-AAD for 15 minutes in the dark. The cells were resuspended in 500 μl PBS and analyzed using a FACScan analyzer (BD Bioscience). Apoptotic cells were calculated as percent of 7-AAD positive cells in 5,000 or more cells per sample. Immunoblot analysis for mitochondrial cytochrome c release: Immunoblot analysis for cytochrome c utilized cytosolic extracts prepared by selective digitonin permeabilization (Leist et al. (1998) Mol. Pharmacol. 54:789-801). Blots were probed with mouse monoclonal anti-cytochrome c antibody (BD Pharmingen) or mouse anti-β-actin antibody. For caspase 9, whole-cell lysates were prepared as described above for the sulfatase assay. Membranes were probed with mouse anti-procaspase 9 or mouse anti-β-actin antibody. Immunoblots were developed using ECL enhanced chemiluminescence reagents after incubation with horseradish peroxidase-conjugated secondary antibodies.

The test system of another assay is hSulf1 expression. Nature of the assay: Treatment with DNA methylation inhibitor, semi-quantitative RT-PCR of hSulf1. The assay is classed as cell-based. The settings on record: SNU449 and Huh-7 cell lines; increasing concentrations (0, 5, or 10 μM), 5 days. Here is the method: Isolation of total RNA, semi-quantitative RT-PCR, and quantitative real-time PCR: Total RNA was extracted from 31 pairs of matched HCCs and adjacent benign liver tissue and the 11 HCC cell lines using the RNEASY® kit (Qiagen). cDNA synthesis was performed using SUPERSCRIPT® II RNase H reverse transcriptase (Invitrogen/Life Technologies) to transcribe 1-5 μg of total RNA primed with 1 μl of 500 μg/ml random hexamers. Primers used for semi-quantitative RT-PCR were: hSulf1-F (5′-[…]-3′; […]) and hSulf1-R (5′-[…]-3′; SEQ ID NO:14), yielding an 826 bp PCR product; GAPDH-F (5′-[…]-3′; SEQ ID NO:15) and GAPDH-R (5′-[…]-3′; SEQ ID NO:16). […] For quantitative real-time PCR analysis of HCC tumors, the hSulf1 primers were hSulf1RT-F (5′- […]-3′; SEQ ID NO:39) and hSulf1RT-R (5′-[…]-3′; SEQ ID NO:40), yielding a 379 bp PCR product. Real-time PCR was performed according to the manufacturer's recommendation in a Roche LightCycler using the following profile: 95° C. for 90 seconds followed by 34 cycles of 0 seconds at 95° C., 10 seconds at 61° C., and 20 seconds at 72° C. hSulf1 mRNA levels were normalized by comparison to 18S ribosomal RNA levels measured in the same samples. […]
Treatment with the DNA methylation inhibitor, 5-aza-2′-deoxycytidine. […] RNA (2 μg) was reverse transcribed as described above and semi-quantitative RT-PCR performed as described. […]

In a further assay the test system is OV207 clones. Nature of the assay: Drug sensitivity of OV207 clones transfected with HSulf-1. In kind it is cell-based.
In another assay the test system is SKOV3 cells. Nature of the assay: Analysis of apoptosis (DAPI fluorescence microscopy, DNA fragmentation, 7-AAD flow cytometry, cytochrome c) in SKOV3 cells. In kind it is cell-based. Details: apoptosis, % of cells: dose or concentration left out as unconfirmed. The method, then: Analysis of Apoptosis: […] HSulf-1 transfected SKOV3 cells were seeded in 35-mm plates at a density of 2×10^5 cells/well. After incubation at 37° C. for 24 hours, the plates were washed and changed to serum-free medium. Staurosporine was added to a final concentration of 1 μm for 5 hours. DAPI was then added to each well. After a 20 minute incubation at room temperature in the dark, cells were examined by fluorescence microscopy (Nikon Eclipse TE200; Nikon Corp., Tokyo, Japan) using excitation and emission filters of 380 and 430 nm. An individual blinded to the experimental conditions counted at least 300 cells in six different high-power fields for each treatment. Each treatment was repeated at least three times in triplicate. […] The significance of differences between experimental variables was determined using the Student t test. DNA Fragmentation: Parental, vector and stable HSulf-1 clones 3 and 6 were treated with 1 μM staurosporine at 37° C. for 5 hours. Control or treated cells (5×10^5 cells) were harvested with trypsin and centrifuged. DNA was extracted using the Qiagen […]® kit. Aliquots containing 5 μg of DNA were resolved on a 1.5% agarose gel containing 0.5 μg/ml ethidium bromide and visualized under UV light. Flow Cytometry: After treatment with 1 μM staurosporine for 5 hours as described above, cells were washed twice in ice cold PBS containing 3% heat-inactivated fetal bovine serum and 0.02% sodium azide, stained with 7-aminoactinomycin D (7-AAD; 50 μg/ml) for 15 minutes in the dark, resuspended in 500 μl PBS, and subjected to flow cytometry on a FACScan analyzer (BD Bioscience, San Jose, Calif.). After analysis of 10,000 events, the percentage of 7-AAD positive cells was determined. Analysis of Cytosolic Cytochrome c: Parental SKOV3, stable clones of SKOV3-vector, and SKOV3-HSulf-1 clones 3 and 6 were treated with staurosporine as described above, washed in PBS, and incubated for 30 seconds in lysis buffer consisting of 210 mM D-mannitol, 70 mM sucrose, 10 mM HEPES, 5 mM sodium succinate, 0.2 mM EGTA, 0.15% BSA and 80 μg/ml digitonin. After sedimentation at 12,000×g for 1 minute, the supernatant was diluted with an equal volume of 2×sample buffer. The protein samples were quantified, resolved on a 12% SDS-PAGE gel, and subjected to immunoblot analysis as described below using anti-cytochrome c (mouse monoclonal; BD Pharmingen, San Diego, Calif.) at a dilution of 1:500.
In general terms: In flow cytometry, cells or beads pass a laser one at a time.

For assay [2], the system named is Hep3B and Huh-7-derived clones. Nature of the assay: Cisplatin-induced apoptosis in Hep3B and Huh-7 derived clones. In kind it is cell-based. The settings on record: hSulf1-transfected vs Vector stable clones; 5 μM cisplatin. The method, then:
Detection and quantitation of apoptosis: Apoptosis was quantitated by assessing nuclear changes indicative of apoptosis (i.e., chromatin condensation and nuclear fragmentation) using the DNA binding dye DAPI as described by Roberts et al. (supra). Cells were seeded in 35-mm plates at 2×10^5 cells per well. After incubation for 24 hours, the plates were washed, changed to serum free medium containing 1 μM staurosporine, and incubated for 5 hours at 37° C. Five micrograms of DAPI were added and the plates were incubated for 20 minutes at room temperature in the dark. The cells were then examined by fluorescence microscopy (Nikon Eclipse TE200; […] For each treatment, at least 300 cells in six different high-power fields were counted. […] For experiments using cisplatin, cells cultured in medium with 10% serum were treated with or without 5 μM cisplatin for 24 hours, then stained with DAPI and counted.

Another assay deals with 012SCC cells. Nature of the assay: Analysis of apoptosis (DAPI, 7-AAD flow cytometry) in 012SCC cells. The assay is classed as cell-based. The settings on record: 1 μM, 5 hours. Here is the method: Analysis of Apoptosis: Apoptosis was quantitated by assessing the number of cells containing nuclear changes indicative of apoptosis (chromatin condensation and nuclear fragmentation) after staining with DAPI. HSulf-1 transfected 012SCC cells were seeded in 35-mm plates at a density of 2×10^5 cells/well. After incubation at 37° C. for 24 hours, the plates were washed and changed to serum-free medium. […] After a 5 hour incubation for staurosporine and a 24 hour incubation for cisplatin at 37° C., DAPI was added to each well at a final concentration of 5 μg/ml. After a 20 minutes incubation in the dark at 37° C., cells were examined by fluorescence microscopy (Nikon Eclipse TE200; Nikon Corp., Tokyo, Japan) using excitation and emission filters of 380 and 430 nm. An individual blinded to the experimental conditions counted at least 300 cells in six different high-power fields for each treatment. Each treatment was repeated at least three times, performed in triplicate each time. The significance of differences between experimental variables was determined using the Student t test. Detection of Apoptosis by Flow Cytometry: HSulf-1-1 or vector transfected 012SCC cells were collected by centrifugation from untreated control and staurosporine treated cells. […] The cells were then resuspended in 500 μl of PBS and analyzed by FACScan (BD Bioscience). […]

A further assay relates to xenografts. The settings on record: in vivo, previous studies; cited from earlier work.
The next assay has as its system cancer cells. The settings on record: previous studies; cited from earlier work.

Where a SMILES comes first, the peptide text is derived from it. The star is where a group is joined. Cbz = O=C(OCc1ccccc1)*; CH2F = FC*

For the compound `COC(=O)CC(NC(=O)C(C)NC(=O)C(NC(=O)OCc1ccccc1)C(C)C)C(=O)CF` (stereo not drawn) [Z-VAD(O-Me)-fmk, N-(N^α-benzyloxycarbonylvalinylalanyl) aspartic acid (O-methyl ester) fluoromethylketone] (Cbz-Val-Ala-Asp(OMe)-CH2F; configuration not given here), the “effect on staurosporine-induced apoptosis” value in assay [1] (40 μM pretreatment for 1 hour before staurosporine) is given as “inhibited staurosporine-induced apoptosis”.
With `Nc1ncn([C@H]2C[C@H](O)[C@@H](CO)O2)c(=O)n1` [5-aza-2′-deoxycytidine], the hSulf1 expression entry in the assay with hSulf1 expression is reported as “reactivation of hSulf1 expression”.
In the case of `N.N.[Cl][Pt][Cl]` [cisplatin], the sensitivity to drug entry in the assay with OV207 clones is “increased sensitivity”. Moreover, in the assay on SKOV3 cells (HSulf-1-transfected cells, cisplatin, 24 hours), the “apoptosis, % of cells” value is on record as 25-40%. Besides, in the assay with SKOV3 cells (parental or vector-transfected cells, cisplatin, 24 hours), the induction of apoptosis entry is “little apoptosis”. Also, the cisplatin-induced apoptosis result in assay [1] (SNU182 and three hSulf1-transfected stable clones) is recorded as “high sensitivity”; in assay [1] (parental SNU449 and SNU449-Vector), “resistant”; in assay [2], “increasing sensitivity”.
As to `CN[C@@H]1C[C@H]2O[C@@](C)([C@@H]1OC)n1c3ccccc3c3c4c(c5c6ccccc6n2c5c31)C(=O)NC4` [staurosporine], the sensitivity to drug result in the assay with OV207 clones is “increased sensitivity”. In the assay with 012SCC cells (HSulf-1-transfected cells), the “apoptosis, % of cells” value came to 40%. Moreover, the induction of apoptosis result is reported as “little apoptosis” in the assay on 012SCC cells (parental or vector-transfected cells); “markedly enhanced caspase-dependent apoptosis” in the assay on SKOV3 cells (SKOV3 clones stably transfected with HSulf-1, 1 μM, 5 hours); “no induction of apoptosis” in the assay on SKOV3 cells (parental or vector-transfected SKOV3, 1 μM, 5 hours). Besides, the staurosporine-induced apoptosis result is on record as “large increase in apoptosis” in assay [1] (SNU182 and SNU475 (high hSulf1-expressing)); “minimal sensitivity” in assay [1] (hSulf1 negative parental SNU449 and SNU449-Vector); “high sensitivity” in assay [1] (three hSulf1-transfected SNU449 clones).
Take `COc1cc2ncnc(Nc3ccc(F)c(Cl)c3)c2cc1OCCCN1CCOCC1` [Iressa]: the “response of xenografts to combination” value in the assay on xenografts is reported as “enhance response of xenografts to cisplatin or paclitaxel”. Besides, the “sensitization to chemotherapeutic drugs in vitro” value with cancer cells was “sensitizes cancer cells to cisplatin, paclitaxel and topotecan”.
For the compound `COc1cccc(-c2cc(=O)c3ccccc3o2)c1N` [PD98059], the “sensitization to chemotherapeutic drugs in vitro” value in the assay on cancer cells is “sensitizes a variety of cell lines, including ovarian cancer cell lines, to cisplatin and paclitaxel”.
